Experimental data reported in article PMC9290024 (ACS Medicinal Chemistry Letters, 2022).

Key:
[1] = Stability in mouse hepatocytes; assay type: in vitro ADME; settings: 0.5 μM, 60 min
[2] = Stability in human hepatocytes; assay type: in vitro ADME; settings: 0.5 μM, 120 min
[3] = Pharmacokinetics in CD-1 IGS mouse; settings: mouse PK studies; for parent recovered in feces following iv administration: data not shown
[4] = Stability in rat hepatocytes; assay type: in vitro ADME; settings: 0.5 μM, 60 min

scaled Clint, mouse hepatocytes [1] [mL min^–1 kg^–1] | scaled Clint, human hepatocytes [2] [mL min^–1 kg^–1] | oral absorption [3] | parent recovered in feces following iv administration [3] | scaled Clint, rat hepatocytes [4] [mL min^–1 kg^–1] | SMILES
889 | 18 | reasonable oral absorption | 17–30% | 265 | CC(=O)N1CC[C@H]2CN([C@H]3CCC[C@@H](NC(=O)c4cc5c(F)ccc(C)c5[nH]4)C3)C[C@H]21 [compound 8]
216 | 9 |  |  | 154 | CC(=O)N1CCN([C@H]2CCC[C@@H](NC(=O)c3cc4c(F)ccc(C)c4[nH]3)C2)CC1 [EZM0414]
103 | 5 | reasonable oral absorption | 17–30% | 72 | CC(=O)N1CC[C@H]2[C@@H]1CCN2[C@H]1CCC[C@@H](NC(=O)c2cc3c(F)ccc(C)c3[nH]2)C1 [compound 9]
678 | 32 |  |  | 283 | CC(=O)N1CCN(c2cccc(NC(=O)c3cc4c(F)ccc(C)c4[nH]3)c2)CC1 [compound 3]
721 | 51 |  |  | 137 | Cc1ccc(F)c2cc(C(=O)N[C@@H]3CCC[C@H](N4CC[C@H](N(C)S(C)(=O)=O)C4)C3)[nH]c12 [EPZ-719, reference compound]
425 | 23 |  |  | 69 | Cc1ccc(F)c2cc(C(=O)N[C@@H]3CCC[C@H](N4CCN5C(=O)CC[C@H]5C4)C3)[nH]c12 [compound 7]
